Measured values taken from patent US11084818B2 (HEPO PHARMACEUTICAL CO., LTD., priority 2016, dated 2021).

Legend:
[1] = biological target: T1, hTLR7 (Homo sapiens, UniProt Q9NYK1); assay: Activation activity test of hTLR7 (HEK-Blue hTLR7 cells, QUANTI-Blue OD650); assay type: cell-based; settings: 24 hours incubation, read-out: TLR7 (EC50)
T1 construct: host or cells: HEK-Blue hTLR7 (HEK293-derived reporter line)
T1 sequence (Q9NYK1 27-1049): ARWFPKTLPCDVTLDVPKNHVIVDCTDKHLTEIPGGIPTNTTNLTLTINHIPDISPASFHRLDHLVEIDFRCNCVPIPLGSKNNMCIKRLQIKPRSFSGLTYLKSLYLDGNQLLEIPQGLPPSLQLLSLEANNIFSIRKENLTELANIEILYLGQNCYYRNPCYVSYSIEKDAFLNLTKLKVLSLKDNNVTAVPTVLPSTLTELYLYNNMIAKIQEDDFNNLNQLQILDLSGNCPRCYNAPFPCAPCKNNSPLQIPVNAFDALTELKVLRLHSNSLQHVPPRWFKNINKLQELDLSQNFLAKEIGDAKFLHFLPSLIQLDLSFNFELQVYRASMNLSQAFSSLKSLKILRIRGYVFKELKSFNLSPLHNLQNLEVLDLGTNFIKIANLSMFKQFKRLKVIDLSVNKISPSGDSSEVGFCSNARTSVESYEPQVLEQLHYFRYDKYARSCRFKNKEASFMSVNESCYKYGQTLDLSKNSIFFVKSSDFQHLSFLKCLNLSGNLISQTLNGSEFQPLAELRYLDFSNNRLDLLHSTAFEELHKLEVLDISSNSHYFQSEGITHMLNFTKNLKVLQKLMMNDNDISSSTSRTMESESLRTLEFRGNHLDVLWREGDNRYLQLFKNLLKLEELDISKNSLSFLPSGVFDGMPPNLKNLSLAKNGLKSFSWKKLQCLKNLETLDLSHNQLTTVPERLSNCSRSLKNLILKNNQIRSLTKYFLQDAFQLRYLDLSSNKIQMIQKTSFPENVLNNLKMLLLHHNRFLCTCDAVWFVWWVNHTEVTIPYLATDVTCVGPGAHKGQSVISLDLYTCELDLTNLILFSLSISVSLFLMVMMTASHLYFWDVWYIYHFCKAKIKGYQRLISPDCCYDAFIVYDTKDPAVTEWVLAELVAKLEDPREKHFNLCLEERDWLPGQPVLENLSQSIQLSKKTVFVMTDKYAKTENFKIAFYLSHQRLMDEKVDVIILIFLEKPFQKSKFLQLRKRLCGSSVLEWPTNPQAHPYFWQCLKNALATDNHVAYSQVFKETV
Protocol: (§1) Effect Example 1: Activation Activity Test of hTLR7 and hTLR8
(§2) Cell lines: HEK-Blue™ hTLR7 and HEK-Blue™ hTLR8 (InvivoGen Co.)
(§3) Primary reagents: QUANTI-Blue™ (InvivoGen) and ATPlite 1 Step (PerkinElmer)
(§4) Primary instruments: Automatic Liquid Handling Workstation (Labcyte, Model: Echo), Cell Counter (Countstar, IC1000) and Multifunctional Enzyme Marker (Molecular Device, Flexstation III).
(§5) 2.1 The tested compounds were formulated into a 60 mM concentrated stock solution in DMSO and stored in a nitrogen cabinet.
(§6) 2.3 The T150 cultured cells were taken out from the CO2 incubator and the cell culture supernatant was discarded. The cells were washed with PBS once, followed by addition of about 10 mL of the culture solution. The cells were dissociated by patting the cell culture flask, and gently blown to even by a pipette.
(§7) The cells were counted, and the cell suspension was adjusted to 200,000 cells/mL by the culture solution. Thereafter, 200 μL of diluted cells was added to each well in a 96-well plate containing the compound (40,000 cells/well).
(§8) 2.4 The compounds and cells were incubated in a 5% CO2 incubator at 37° C. for 24 hours.
(§9) 2.5 Compound activity assay: 20 μl of the cell supernatant of each well after induction was added to a cell culture plate containing 180 μL of reagent QUANTI-Blue™, and incubated at 37° C. for 1.5 hours. Thereafter, the optical density absorption (OD650) of each well at 650 nm was measured using a Multifunctional Enzyme Marker: Flexstation III.
(§10) 2.6 Compound Activity: OD650 values were analyzed using GraphPad Prism software and the dose-response curves for the compound were fitted to calculate the EC50 values of the compound.

[2] = biological target: T2, hTLR8 (Homo sapiens, UniProt Q9NR97); assay: Activation activity test of hTLR8 (HEK-Blue hTLR8 cells, QUANTI-Blue OD650); assay type: cell-based; settings: HEK-Blue hTLR8 cells, 24 hours incubation; read-out: TLR8 (EC50)
T2 construct: host or cells: HEK-Blue hTLR8 (HEK293-derived reporter line)
T2 sequence (Q9NR97 27-1041): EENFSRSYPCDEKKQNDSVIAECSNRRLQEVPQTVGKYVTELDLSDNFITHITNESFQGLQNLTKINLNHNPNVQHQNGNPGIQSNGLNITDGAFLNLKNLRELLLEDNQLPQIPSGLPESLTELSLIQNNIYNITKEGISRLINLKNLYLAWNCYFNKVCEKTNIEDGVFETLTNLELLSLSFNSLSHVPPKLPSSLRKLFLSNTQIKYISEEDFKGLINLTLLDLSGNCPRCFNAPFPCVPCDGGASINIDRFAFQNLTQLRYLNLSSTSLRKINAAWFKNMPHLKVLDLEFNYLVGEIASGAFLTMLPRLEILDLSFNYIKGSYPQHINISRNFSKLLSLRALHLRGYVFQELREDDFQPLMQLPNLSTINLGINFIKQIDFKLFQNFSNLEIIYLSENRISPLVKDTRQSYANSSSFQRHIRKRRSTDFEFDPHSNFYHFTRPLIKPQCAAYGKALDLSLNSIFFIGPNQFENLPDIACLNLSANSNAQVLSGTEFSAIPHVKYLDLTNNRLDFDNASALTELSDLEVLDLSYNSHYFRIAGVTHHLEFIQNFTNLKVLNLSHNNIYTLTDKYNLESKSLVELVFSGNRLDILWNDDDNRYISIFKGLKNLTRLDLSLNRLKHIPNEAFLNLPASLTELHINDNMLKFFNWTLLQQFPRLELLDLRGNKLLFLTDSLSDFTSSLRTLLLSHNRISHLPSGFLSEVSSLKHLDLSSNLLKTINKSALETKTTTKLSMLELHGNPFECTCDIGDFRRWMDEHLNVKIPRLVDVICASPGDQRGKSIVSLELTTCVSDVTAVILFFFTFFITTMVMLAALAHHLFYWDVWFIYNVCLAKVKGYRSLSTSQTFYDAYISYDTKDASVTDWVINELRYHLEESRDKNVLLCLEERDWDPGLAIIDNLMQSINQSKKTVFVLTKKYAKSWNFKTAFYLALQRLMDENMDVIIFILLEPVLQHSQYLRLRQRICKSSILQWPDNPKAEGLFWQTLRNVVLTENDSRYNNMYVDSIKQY
Protocol: as §1, §2, §3, §4, §5, §6, §7, §8, §9, §10

EC50 [1] | EC50 [2] | SMILES
> 100 µM | > 100 µM | CCCCSc1ncc2[nH]c(=O)n(Cc3cccc(CN4CCCC4)c3)c2n1 [Example 33, 2-butylthio-9-(3-(pyrrolidin-1-ylmethyl)benzyl)-7,9-dihydro-8H-purin-8-one]
> 100 µM | > 100 µM | COCCOc1ncc2[nH]c(=O)n(CCc3ccc(CN4CCCC4)cc3)c2n1 [Example 67, 9-(4-(pyrrolidin-1-ylmethyl)phenethyl)-2-(2-methoxyethoxy)-7,9-dihydro-8H-purin-8-one]
0.001 to 1 µM | > 100 µM | O=c1[nH]c2cnc(OCCOC(F)(F)F)nc2n1Cc1ccc(CN2CCCC2)cc1 [Example 43]
0.001 to 1 µM | > 100 µM | COCCOc1ncc2[nH]c(=O)n(Cc3ccc([C@H](C)N4CCCC4)cc3)c2n1 [Example 41, (S)-2-(2-methoxyethoxy)-9-(4-(1-(pyrrolidin-1-yl)ethyl)benzyl)-7,9-dihydro-8H-purin-8-one]
1 to 10 µM | > 100 µM | CC(C)OCCOc1ncc2[nH]c(=O)n(Cc3ccc(CN4CCCC4)cc3)c2n1 [Example 64, 9-(4-(pyrrolidin-1-ylmethyl)benzyl)-2-(2-isopropoxyethoxy)-7,9-dihydro-8H-purin-8-one]
> 100 µM | > 100 µM | COCCNc1ncc2[nH]c(=O)n(Cc3cccc(CN4CCCC4)c3)c2n1 [Example 32, 2-((2-methoxyethyl)amine)-9-(3-(pyrrolidin-1-ylmethyl)benzyl)-7,9-dihydro-8H-purin-8-one]
> 100 µM | > 100 µM | CCCCS(=O)(=O)c1ncc2[nH]c(=O)n(Cc3cccc(CN4CCCC4)c3)c2n1 [Example 35, 2-butylsulfonyl-9-(3-(pyrrolidin-1-ylmethyl)benzyl)-7,9-dihydro-8H-purin-8-one]
10 to 100 µM | > 100 µM | COCCOc1ncc2[nH]c(=O)n(Cc3cccc(C(C)N4CCCC4)c3)c2n1 (stereo not drawn) [Example 26, 2-(2-methoxyethoxy)-9-(3-(1-(pyrrolidin-1-yl)ethyl)benzyl)-7,9-dihydro-8H-purin-8-one]
10 to 100 µM | > 100 µM | COCCOc1nc(O)c2[nH]c(=O)n(Cc3ccc(CN4CCCC4)cc3)c2n1 [Example 69, 6-hydroxy-2-(2-methoxyethoxy)-9-(4-(pyrrolidin-1-ylmethyl)benzyl)-7,9-dihydro-8H-purin-8-one]
> 100 µM | > 100 µM | CCCCNc1ncc2[nH]c(=O)n(Cc3cccc(CN4CCCC4)c3)c2n1 [Example 31, 2-(butylamino)-9-(3-(pyrrolidin-1-ylmethyl)benzyl)-7,9-dihydro-8H-purin-8-one]
> 100 µM | > 100 µM | CCCn1c(=O)n(Cc2ccc(CN3CCCC3)cc2)c2nc(OCCOC)ncc21 [Example 57, 9-(4-(pyrrolidin-1-ylmethyl)benzyl)-7-propyl-2-(2-methoxyethoxy)-7,9-dihydro-8H-purin-8-one]

The remaining lines, values behind:

SMILES | EC50 [1] | EC50 [2]
COCCOc1ncc2[nH]c(=O)n(Cc3ccc(CN4CCC[C@H]4C(=O)OC)cc3)c2n1 [Example 8, methyl (4-((2-(2-methoxyethoxy)-8-oxo-7,8-dihydro-9H-purin-9-yl)methyl)benzyl)-L-pyrrolidine-2-carboxylate] | 10 to 100 µM | > 100 µM
COCCOc1ncc2[nH]c(=O)n(Cc3ccc(CN4CCC5(CC4)COC5)cc3)c2n1 [Example 11, 9-(4-((2-oxa-7-azaspiro[3.5]nonan-7-yl)methyl)benzyl)-2-(2-methoxyethoxy)-7,9-dihydro-8H-purin-8-one] | 1 to 10 µM | > 100 µM
CCN(CC)Cc1ccc(Cn2c(=O)[nH]c3cnc(OCCOC)nc32)cc1 [Example 10] | 1 to 10 µM | > 100 µM
COCCOc1ncc2[nH]c(=O)n(Cc3ccc(CN4CCCC4)cc3)c2n1 [Example 1, 2-(2-methoxyethoxy)-9-(4-(pyrrolidin-1-ylmethyl)benzyl)-7,9-dihydro-8H-purin-8-one] | 1 to 10 µM | > 100 µM
COCCOc1ncc2[nH]c(=O)n(Cc3ccc(CN4CCC[C@@H]4C(=O)OC)cc3)c2n1 [Example 7, methyl (4-((2-(2-methoxyethoxy)-8-oxo-7,8-dihydro-9H-purin-9-yl)methyl)benzyl)-D-pyrrolidine-2-carboxylate] | 10 to 100 µM | > 100 µM
COCCOc1ncc2[nH]c(=O)n(Cc3cccc(CN4CCCCC4)c3)c2n1 [Example 20, 2-(2-methoxyethoxy)-9-(3-(piperidin-1-ylmethyl)benzyl)-7,9-dihydro-8H-purin-8-one] | 10 to 100 µM | > 100 µM
CCCCOc1ncc2[nH]c(=O)n(Cc3cccc(CN4CCCC4)c3)c2n1 [Example 27, 2-butoxy-9-(3-(pyrrolidin-1-ylmethyl)benzyl)-7,9-dihydro-8H-purin-8-one] | > 100 µM | 10 to 100 µM
COCCOc1ncc2[nH]c(=O)n(Cc3ccc(CN4CCCCC4)cc3)c2n1 [Example 3, 2-(2-methoxyethoxy)-9-(4-(piperidin-1-ylmethyl)benzyl)-7,9-dihydro-8H-purin-8-one] | 1 to 10 µM | > 100 µM
COCCOc1ncc2[nH]c(=O)n(Cc3cccc(CN4CCC[C@H]4C(=O)OC)c3)c2n1 [Example 24, methyl (3-((2-(2-methoxyethoxy)-8-oxo-7,8-dihydro-9H-purin-9-yl)methyl)benzyl)-L-pyrrolidine-2-carboxylate] | > 100 µM | > 100 µM
COCCOc1ncc2[nH]c(=O)n(Cc3ccc(C(C)N4CCCC4)cc3)c2n1 (stereo not drawn) [Example 14, 2-(2-methoxyethoxy)-9-(4-(1-(pyrrolidin-1-yl)ethyl)benzyl)-7,9-dihydro-8H-purin-8-one] | 0.001 to 1 µM | > 100 µM
